What was measured:
Format in all cases: functional
[1] = test system: Rattus norvegicus; test: In vitro inhibitory effect on neutrophil superoxide formation isolated from pentobarbital-anesthetized rats
[2] = biological target: Adenylate cyclase (Homo sapiens) (UniProt Q8NFM4+O60503+Q08828+P40145+O60266+O95622+O43306+Q08462+P51828); test: Effect of compound on cellular c-AMP levels by activation of Adenylate cyclase
[3] = Ratio of cAMP-elevating activity relative to forskolin

Row | Structure (SMILES) | IC50 [1] | Activity (pM (2*10e6*cells)-1) [2] | Ratio [3]
1 | CC(=O)c1ccccc1OCc1ccccc1 | 12.8 µM | 0.26 | 0.22
2 | NC(=O)c1ccccc1OCc1ccccc1 | 19.8 µM | 0.29 | 0.24
3 | C=C[C@@]1(C)CC(=O)[C@]2(O)[C@@]3(C)[C@@H](O)CCC(C)(C)[C@@H]3[C@H](O)[C@H](OC(C)=O)[C@@]2(C)O1 | – | < 1.23 | 1
4 | O=Cc1ccc(OCc2ccccc2)cc1 | 14.8 µM | 0.26 | 0.22
5 | O=Cc1ccccc1OCc1ccccc1 | 15.6 µM | 1.3 | 1.1
6 | CN1CCN(CCCN2c3ccccc3Sc3ccc(C(F)(F)F)cc32)CC1 [TRIFLUOPERAZINE] | 14.7 µM | – | –
7 | O=Cc1cccc(OCc2ccccc2)c1 | > 30 µM | 0.56 | 0.46

From ChEMBL document CHEMBL1133882, “Benzyloxybenzaldehyde analogues as novel adenylyl cyclase activators” (Bioorg Med Chem Lett, 2001)
